Assay results taken from patent US20070275977A1, “N-OXIDES OF PYRIDYLMETHYL -PIPERAZINE AND -PIPERIDINE DERIVATIVES” (priority 2006, published 2007).
pKi: −log10 of the molar value.

Key:
[1] = biological target: Dopamine-D1 (Homo sapiens, UniProt P21728); test: In vitro receptor affinity, Dopamine-D1; format: binding; settings: radioligand [3H]-SCH 23390, read-out: K1 (in vitro receptor affinity)
Description: (§1) ln vitro affinity for neurotransmitter receptors: The binding data collected below were either obtained by CE REP (128, rue Danton, 92500 Rueil-Malmaison, France) or at Solvay Pharmaceuticals B.V. (C. J. van Houtenlaan 36, 1381 CP Weesp, The Netherlands), using well documented standard procedures. The affinities for dopamine-D2 and 5-HT1A receptors for instance, were measured as described by Creese (1997) and Gozlan (1983) respectively.

[2] = biological target: Dopamine-D2 (Homo sapiens, UniProt P14416); test: In vitro receptor affinity, Dopamine-D2; format: binding; settings: radioligand [3H]-spiperone, read-out: K1 (in vitro receptor affinity)
Sequence of Dopamine-D2 (P14416 whole entry): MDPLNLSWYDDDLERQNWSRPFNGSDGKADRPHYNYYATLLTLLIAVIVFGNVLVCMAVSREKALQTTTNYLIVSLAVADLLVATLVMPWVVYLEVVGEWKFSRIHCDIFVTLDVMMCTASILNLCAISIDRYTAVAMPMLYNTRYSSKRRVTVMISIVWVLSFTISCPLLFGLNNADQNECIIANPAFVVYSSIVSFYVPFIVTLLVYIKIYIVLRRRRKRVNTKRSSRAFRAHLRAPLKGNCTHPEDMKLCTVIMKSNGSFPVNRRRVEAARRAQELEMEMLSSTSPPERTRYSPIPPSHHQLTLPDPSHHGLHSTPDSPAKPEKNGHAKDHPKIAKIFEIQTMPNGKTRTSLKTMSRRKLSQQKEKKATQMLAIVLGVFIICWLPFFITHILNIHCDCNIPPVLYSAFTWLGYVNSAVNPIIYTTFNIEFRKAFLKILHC
Description: as §1

[3] = biological target: Dopamine-D3 (Homo sapiens, UniProt P35462); test: In vitro receptor affinity, Dopamine-D3; format: binding; settings: radioligand [3H]-spiperone, read-out: K1 (in vitro receptor affinity)
Sequence of Dopamine-D3 (P35462 whole entry): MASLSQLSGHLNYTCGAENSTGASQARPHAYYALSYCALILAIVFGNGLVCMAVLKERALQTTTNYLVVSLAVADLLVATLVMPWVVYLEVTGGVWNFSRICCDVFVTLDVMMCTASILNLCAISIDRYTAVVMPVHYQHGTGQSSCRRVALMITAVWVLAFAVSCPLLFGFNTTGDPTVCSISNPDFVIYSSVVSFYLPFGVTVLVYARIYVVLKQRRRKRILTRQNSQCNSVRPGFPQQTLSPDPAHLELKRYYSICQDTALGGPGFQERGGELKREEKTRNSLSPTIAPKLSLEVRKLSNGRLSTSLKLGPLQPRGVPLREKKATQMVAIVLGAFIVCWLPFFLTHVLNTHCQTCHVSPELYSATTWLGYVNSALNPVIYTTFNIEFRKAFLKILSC
Description: as §1

[4] = biological target: Dopamine-D4 (Homo sapiens, UniProt P21917); test: In vitro receptor affinity, Dopamine-D4; format: binding; settings: radioligand [3H]-spiperone, read-out: K1 (in vitro receptor affinity)
Sequence of Dopamine-D4 (P21917 whole entry): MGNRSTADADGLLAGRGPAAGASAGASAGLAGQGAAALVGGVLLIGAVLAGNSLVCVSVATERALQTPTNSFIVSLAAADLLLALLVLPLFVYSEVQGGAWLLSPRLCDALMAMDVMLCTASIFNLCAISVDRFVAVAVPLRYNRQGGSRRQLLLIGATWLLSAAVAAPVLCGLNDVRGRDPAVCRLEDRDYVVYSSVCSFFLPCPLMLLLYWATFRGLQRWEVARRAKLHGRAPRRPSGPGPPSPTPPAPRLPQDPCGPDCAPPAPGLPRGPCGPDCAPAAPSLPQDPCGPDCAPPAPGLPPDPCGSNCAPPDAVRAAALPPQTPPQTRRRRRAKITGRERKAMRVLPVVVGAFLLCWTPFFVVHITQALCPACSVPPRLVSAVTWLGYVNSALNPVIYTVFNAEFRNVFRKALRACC
Description: as §1

[5] = biological target: Serotonin-5-HT4 (Homo sapiens, UniProt Q13639); test: In vitro receptor affinity, Serotonin-5-HT4; format: binding; settings: radioligand [3H]-GR 113808, read-out: K1 (in vitro receptor affinity)
Sequence of Serotonin-5-HT4 (Q13639 whole entry): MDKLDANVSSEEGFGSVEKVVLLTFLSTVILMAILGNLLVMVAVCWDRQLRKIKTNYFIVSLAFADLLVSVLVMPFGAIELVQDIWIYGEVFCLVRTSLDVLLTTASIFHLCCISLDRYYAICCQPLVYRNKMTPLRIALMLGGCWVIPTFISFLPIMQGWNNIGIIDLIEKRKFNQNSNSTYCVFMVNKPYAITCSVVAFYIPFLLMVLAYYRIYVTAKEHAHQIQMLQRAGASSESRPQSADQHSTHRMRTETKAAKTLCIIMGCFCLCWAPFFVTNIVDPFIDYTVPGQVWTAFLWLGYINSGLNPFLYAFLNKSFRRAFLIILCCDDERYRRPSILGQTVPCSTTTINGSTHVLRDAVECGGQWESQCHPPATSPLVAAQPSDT
Description: as §1

[6] = biological target: T1, human 5-HT1A receptors (Homo sapiens, UniProt P08908); test: In vitro functional agonism at 5-HT1A receptors, adenylate cyclase in CHO cell-lines; format: cell-based; settings: CHO cell-lines expressing cloned receptor; read-out: Agonism human 5-HT1A receptors, pEC50 (converted)
T1 construct: expressed in transfected cells; host or cells: CHO
T1 sequence (P08908 whole entry): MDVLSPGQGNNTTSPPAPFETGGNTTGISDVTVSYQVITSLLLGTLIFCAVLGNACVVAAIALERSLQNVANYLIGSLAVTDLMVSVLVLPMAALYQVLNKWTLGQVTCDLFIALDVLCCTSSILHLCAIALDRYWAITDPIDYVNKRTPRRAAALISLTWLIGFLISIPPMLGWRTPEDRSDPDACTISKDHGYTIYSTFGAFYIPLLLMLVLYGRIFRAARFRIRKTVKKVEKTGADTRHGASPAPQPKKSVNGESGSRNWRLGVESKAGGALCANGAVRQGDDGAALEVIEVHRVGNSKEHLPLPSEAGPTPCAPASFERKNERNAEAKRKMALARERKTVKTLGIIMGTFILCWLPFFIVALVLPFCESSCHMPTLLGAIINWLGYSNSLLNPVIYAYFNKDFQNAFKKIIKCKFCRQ
Description: (§2) In vitro (ant)agonistic activity at human D2 receptors and 5-HT1A receptors was measured according to the methods described by Solomon (1974) and Weiss (1985) respectively, on the formation of adenylate cyclase in CHO cell-lines expressing these cloned receptors.

[7] = tested on: Apomorphine-induced climbing behaviour in mice; test: Antagonism of apomorphine-induced climbing behaviour in mice; format: in vivo; settings: Mus musculus, po, read-out: Antagon. apomorphine ind. climbing: ED50
Description: (§3) For oral (p.o.) administration: to the desired quantity (0.5-5 mg) of the solid test compound in a glass tube, some glass beads were added and the solid was milled by vortexing for 2 minutes. After addition of 1 ml of a solution of 1% methylcellulose in water and 2% (v/v) of Poloxamer 188 (Lutrol F68), the compound was suspended by vortexing for 10 minutes. The pH was adjusted to 7. Remaining particles in the suspension were further suspended by using an ultrasonic bath.
(§4) Lower lip retraction, an in vivo animal model for serotonin 5-HT1A receptor agonistic activity, was measured according to the method described by Berendsen (1989); Apomorphine-induced climbing behaviour in mice, an in vivo animal model for dopamine-D2 receptor antagonistic activity, was determined according to the method described by Costall (1978).

[8] = tested on: neurotransmitter receptors; test: Pharmacological profile in vitro (overall statement)
Description: as §1, §2

[9] = Pharmacological profile in vivo (overall statement); settings: in vivo
Description: as §4

[10] = Plasma concentrations in mice after i.v. or p.o. administration, blood analyzed by LC-MS; format: in vivo; settings: i.v. or p.o.
Description: The LC-MS system consists of 2 Perkin elmer series 200 micro pumps. The pumps were connected to each other by a 50 pI tee mixer, and connected to a Gilson 215 auto sampler. The method was as follows:
The auto sampler was connected to a Waters Atlantis C18 30*4.6 mm column with 3 μm particles. The column was thermo stated in a Perkin Elmer series 200 column oven at 40° C. The column was connected to a Perkin Elmer series 200 UV meter with a 2.7 μl flowcel. The wavelength was set to 254 nm. The UV meter was connected to a Sciex API 150EX mass spectrometer. The mass spectrometer had the following parameters: Scanrange:150-900 a.m.u., polarity: positive; scan mode: profile; resolution Q1: UNIT; step size: 0.10 a.m.u.; time per scan: 0.500 sec; NEB: 10; CUR: 10; IS: 5200; TEM: 325; DF: 30; FP: 225 and EP: 10. The light scattering detector was connected to the Sciex API 150. The light scattering detector was a Sedere Sedex 55 operating at 50° C. and 3 bar N2. The complete system was controlled by a G3 powermac.
as §3, with “Remaining particles in the suspension were further suspended by using an ultrasonic bath.” left out

[11] = Metabolism studies in humans; format: in vivo; settings: in man (also not in any animal species used in toxicology studies)
Text: (§5) Psychotropic pyridylmethyl -piperazine and -piperidine derivatives are disclosed in EP 0 908 458. […] By now it is very well known that N-oxides are metabolites of many tertiary amines, and in most cases are also intermediates between tertiary amines and their N-dealkylated analogs. Most, but not all, tertiary amine drugs give rise to N-oxides. For instance, this is the case with morphine, imipramine, promazine, cinnarizine and nicotine, to name just a few. How much N-oxidation takes place varies from trace amounts to a near quantitative conversion. […] The most famous example of these is chlordiazepoxide (Librium®), one of the most frequently used drugs in psychiatric and general medicine. […] Some N-oxides undergo nearly quantitative reductive conversion to the corresponding tertiary amines and in other cases the conversion is a mere trace reaction or even completely absent (Bickel, 1969). Thus, the formation of N-oxides and their corresponding tertiary amines is unpredictable. […] When they are, the reaction can be a mere trace or nearly quantitative.

[12] = Toxicological studies, plasma of rats; format: in vivo; settings: rats dosed with SLV313
Text: as §5

[13] = Toxicological studies, plasma of dogs; format: in vivo; settings: dogs dosed with SLV313
Text: as §5

Sequence of Dopamine-D1 (P21728 whole entry): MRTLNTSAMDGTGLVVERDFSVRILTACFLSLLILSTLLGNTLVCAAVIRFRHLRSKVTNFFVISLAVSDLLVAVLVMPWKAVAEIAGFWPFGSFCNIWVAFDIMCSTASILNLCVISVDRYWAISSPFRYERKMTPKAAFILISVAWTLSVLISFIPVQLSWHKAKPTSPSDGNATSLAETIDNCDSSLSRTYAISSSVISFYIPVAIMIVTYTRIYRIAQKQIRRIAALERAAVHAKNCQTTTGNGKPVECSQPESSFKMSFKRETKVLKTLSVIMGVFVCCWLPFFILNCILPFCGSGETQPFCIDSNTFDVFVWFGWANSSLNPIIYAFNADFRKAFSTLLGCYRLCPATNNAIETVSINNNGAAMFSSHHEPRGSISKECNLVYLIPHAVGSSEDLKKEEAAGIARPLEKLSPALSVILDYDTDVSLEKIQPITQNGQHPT

SMILES: [O-][n+]1cc(CN2CCN(c3cccc4c3OCCO4)CC2)cc(-c2ccc(F)cc2)c1 [pyridine N-oxide, 1-(2,3-dihydro-1,4-benzodioxin-5-yl)-4-[[5-(4-fluorophenyl)-1-oxido-3-pyridinyl]methyl]-piperazine]
- pKi [1]: < 5.00
- pKi [2]: 8.30
- pKi [3]: 8.10
- pKi [4]: 7.70
- pKi [5]: < 5.00
- EC50 [6]: 1.58 nM
- ED50 [7]: 0.9 mg/kg
- pharmacological profile/activity in vitro relative to parent SLV313 [8]: identical
- pharmacological profile/potency in vivo relative to SLV313 [9]: identical
- melting point: 171 °C

SMILES: Fc1ccc(-c2cncc(CN3CCN(c4cccc5c4OCCO5)CC3)c2)cc1 [SLV313, 3-[[4-(2,3-dihydro-1,4-benzodioxin-5-yl)-1-piperazinyl]methyl]-5-(4-fluorophenyl)pyridine, reference compound]
- pKi [1]: < 5.00
- pKi [4]: 8.00
- pKi [5]: < 6.00
- EC50 [6]: 1.26 nM
- ED50 [7]: 0.5 mg/kg
- metabolism to piperazine-N-oxide [10]: not metabolized to its piperazine-N-oxide
- piperazine-N-oxide as a metabolite [11]: has not been detected as a metabolite
- pyridine-N-oxide in plasma [12]: could not be demonstrated
- pyridine-N-oxide in plasma [13]: could not be demonstrated
